Series [1] can be described thus: Cytotoxicity in Vero cells. In kind it is cell-based. The settings on record: African green monkey, cytotoxic concentration. The method, then:
(§1) The methanol extracts of the plant parts and their fractions separated as less polar, medium polar and polar fractions using column chromatography or solvent separation/partitioning, were assessed for toxicity and subsequently for inhibition of HSV-2 in Vero cells by plaque reduction assay. These extracts and fractions were also tested for anti-HIV-1 activity and inhibition of other sexually transmitted pathogens like C. albicans, N gonorrhoea and H. ducreyi.
(§2) According to Table 3, the extracts of plant species selected from the group consisting of Polygonum glabrum, Rhus mysorensis, Terminalia paniculata, Cuscuta reflexa, Terminalia crenulata, Cassytha filiformis, Scutia myrtina, were studied for cytotoxicity in Vero cells.

Another series deals with Vero cells. The experiment in a line: Cytotoxicity in Vero cells. It is filed as cell-based. The settings on record: cytotoxic concentration. The method, then: as §1, §2
Another series concerns HSV-2. The series is described as follows: Anti-HSV-2 plaque reduction assay in Vero cells. It is filed as cell-based, Herpes Simplex Virus Type-2. The settings on record: HSV-2 plaque assay. The method, then: 13 wild plant species belonging to eight families Convolvulaceae (3 species), Polygonaceae (2 species), Anacardiaceae (1 species), Combretaceae (2 species), Lauraceae (1 species), Asteraceae (2 species), Zingiberaceae (1 species) and Rhamnaceae (1 species) were selected.
as §1
Background: Plaque reduction counts the foci of infection that form in a cell layer.

Series [2] has as its system Haemophilus duceryi ATCC 33921. The experiment in a line: Anti-Ducreyi activity by agar disc diffusion. In kind it is cell-based, Haemophilus ducreyi. The settings on record: H. duceryi ATCC 33921 (Tetracycline Sensitive); 10 μg disc, positive control. The method, then: A tetracycline sensitive strain of H. duceryi ([…]) was cultured on Chanchroid agar (GC agar supplemented with 2% haemoglobin, 5% FBS and 1% isovitalex and incubated at 33° C. for 72 hrs. in a candle jar with 45% moisture. The strain was identified by colony characteristics, Gram stain, growth characteristics (requirement for X and V factors) and Tween 80 hydrolysis as described earlier, and stored at −70° C. in brain heart infusion broth containing 20% glycerol.
The inoculum of each strain was prepared following the CLSI guidelines for bacteria and yeasts. The 0.5 McFarland standard inoculums (approx. 1.5×10^8 CFU/ml) of N. gonorrhoeae, H. duceryi and C. albicans were prepared from freshly grown cultures, in sterile 0.85% normal saline and mixed thoroughly. […]
The primary screening of plant extracts for activity against the three microorganisms included in the study was carried out by Kirby Baur agar disc diffusion method as described earlier. […] The discs (extract/fraction and controls) were placed on the plates previously inoculated with the respective bacterial/fungal culture, incubated as mentioned above and the zone of inhibition was recorded. […] The minimum inhibitory and minimum cidal concentrations of the extracts showing inhibition were determined using following methods.
(Agar diffusion results depend on both activity and mobility in agar.)

[3] abbreviates: Human alphaherpesvirus 2, Vero cells.

Converted amounts (≈) assume the structure as drawn.

The term CC50 denotes the concentration giving 50% cytotoxicity. Higher therefore signals better tolerance by the cells. Broadly, the IC50 is the point on the concentration scale where inhibition reaches its midpoint. For orientation: IC80 means the point of the concentration-response curve where the effect stands at 80%. For the molecule `Nc1nc2c(ncn2COCCO)c(=O)[nH]1` [Acyclovir], it took 806 µg/mL (≈ 3580 µM) to reach half-maximal cytotoxicity in series [1] (CC50). Also, the CC80 in the series with Vero cells stood at 378 µg/mL (≈ 1680 µM). In the series on HSV-2 (setting [3]), the IC50 turned out to be 5.6 µg/mL (≈ 24.9 µM) and the IC80 was 2.81 µg/mL (≈ 12.5 µM). For the same molecule, the TI in the series with HSV-2 (Therapeutic Index) is on record as 151.
As a reminder, the zone of inhibition is the size of the clear area around the sample on an inoculated plate. Consider penicillin, for which the zone of inhibition in series [2] is 36 mm.
